Read-outs that look alike come from different tables or passages of the source.
Tests used:
Format in all cases: binding
[1] = target: T1, HeLa cell extract proteins (Homo sapiens, UniProt O75390)
T1 construct: endogenous in cells; host or cells: HeLa cell extract
T1 sequence (O75390 28-466): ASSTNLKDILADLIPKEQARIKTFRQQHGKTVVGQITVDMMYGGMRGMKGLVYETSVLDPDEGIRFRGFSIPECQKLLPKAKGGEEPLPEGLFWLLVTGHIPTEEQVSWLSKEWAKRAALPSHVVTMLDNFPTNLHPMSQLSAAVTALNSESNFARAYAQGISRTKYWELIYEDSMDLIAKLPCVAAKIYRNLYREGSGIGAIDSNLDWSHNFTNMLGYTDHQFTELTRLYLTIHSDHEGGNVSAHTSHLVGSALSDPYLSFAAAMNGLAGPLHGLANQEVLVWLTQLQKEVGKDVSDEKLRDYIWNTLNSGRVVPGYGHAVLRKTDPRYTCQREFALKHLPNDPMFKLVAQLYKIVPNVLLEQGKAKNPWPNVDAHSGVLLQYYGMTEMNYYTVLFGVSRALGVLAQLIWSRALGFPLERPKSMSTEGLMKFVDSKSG

[2] = target: T2, HeLa cell extract proteins (Homo sapiens, UniProt P04406)
T2 construct: endogenous in cells; host or cells: HeLa cell extract
T2 sequence (P04406 whole entry): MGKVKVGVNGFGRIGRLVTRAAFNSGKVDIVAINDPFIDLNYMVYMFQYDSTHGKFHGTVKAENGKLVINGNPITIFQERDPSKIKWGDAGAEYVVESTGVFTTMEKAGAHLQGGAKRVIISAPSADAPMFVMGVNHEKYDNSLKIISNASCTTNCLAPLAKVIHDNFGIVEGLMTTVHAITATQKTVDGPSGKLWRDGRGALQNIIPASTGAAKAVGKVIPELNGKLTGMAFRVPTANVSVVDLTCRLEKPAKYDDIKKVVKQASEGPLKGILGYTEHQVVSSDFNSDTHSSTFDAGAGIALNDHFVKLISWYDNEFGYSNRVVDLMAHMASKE

[3] = target: T3, HeLa cell extract proteins (Homo sapiens, UniProt P27797)
T3 construct: endogenous in cells; host or cells: HeLa cell extract
T3 sequence (P27797 18-417): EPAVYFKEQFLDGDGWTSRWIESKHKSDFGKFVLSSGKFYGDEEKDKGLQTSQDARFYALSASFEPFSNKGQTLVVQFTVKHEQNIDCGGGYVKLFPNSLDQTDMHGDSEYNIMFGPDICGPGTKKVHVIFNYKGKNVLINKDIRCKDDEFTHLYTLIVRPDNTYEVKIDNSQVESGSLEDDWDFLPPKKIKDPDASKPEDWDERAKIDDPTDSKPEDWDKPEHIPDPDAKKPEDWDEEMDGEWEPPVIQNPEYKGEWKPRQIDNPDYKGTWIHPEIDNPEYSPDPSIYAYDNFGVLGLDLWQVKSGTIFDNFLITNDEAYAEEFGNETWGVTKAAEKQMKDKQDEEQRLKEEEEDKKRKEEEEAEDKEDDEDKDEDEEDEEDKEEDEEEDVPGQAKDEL

[4] = target: T4, HeLa cell extract proteins (Homo sapiens, UniProt P28072)
T4 construct: endogenous in cells; host or cells: HeLa cell extract
T4 sequence (P28072 1-239): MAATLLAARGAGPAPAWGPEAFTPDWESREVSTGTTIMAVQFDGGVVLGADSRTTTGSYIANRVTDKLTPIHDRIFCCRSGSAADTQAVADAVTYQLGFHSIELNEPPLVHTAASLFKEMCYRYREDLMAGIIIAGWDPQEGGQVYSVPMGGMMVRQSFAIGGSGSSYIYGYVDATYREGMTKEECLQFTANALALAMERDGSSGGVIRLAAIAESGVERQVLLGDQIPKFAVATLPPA

[5] = target: T5, HeLa cell extract proteins (Homo sapiens, UniProt P50454)
T5 construct: endogenous in cells; host or cells: HeLa cell extract
T5 sequence (P50454 19-418): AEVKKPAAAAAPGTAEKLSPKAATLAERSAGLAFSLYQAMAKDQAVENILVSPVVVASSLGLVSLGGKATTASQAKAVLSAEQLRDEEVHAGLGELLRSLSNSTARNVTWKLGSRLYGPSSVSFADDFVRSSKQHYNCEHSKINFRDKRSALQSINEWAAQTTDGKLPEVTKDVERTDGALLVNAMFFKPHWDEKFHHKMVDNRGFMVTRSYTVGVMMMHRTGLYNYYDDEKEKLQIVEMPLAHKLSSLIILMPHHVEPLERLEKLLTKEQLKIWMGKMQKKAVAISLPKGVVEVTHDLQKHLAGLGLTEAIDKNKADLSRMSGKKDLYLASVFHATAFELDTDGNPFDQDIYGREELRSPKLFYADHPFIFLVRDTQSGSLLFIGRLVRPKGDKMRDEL

[6] = target: T6, HeLa cell extract proteins (Homo sapiens, UniProt P51149)
T6 construct: endogenous in cells; host or cells: HeLa cell extract
T6 sequence (P51149 whole entry): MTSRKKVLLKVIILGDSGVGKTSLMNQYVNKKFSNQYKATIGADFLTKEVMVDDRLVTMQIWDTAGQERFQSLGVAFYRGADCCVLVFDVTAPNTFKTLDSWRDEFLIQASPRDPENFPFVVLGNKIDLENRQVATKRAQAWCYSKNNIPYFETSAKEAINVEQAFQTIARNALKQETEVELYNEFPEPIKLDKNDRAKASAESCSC

[7] = target: T7, HeLa cell extract proteins (Homo sapiens, UniProt P62195)
T7 construct: endogenous in cells; host or cells: HeLa cell extract
T7 sequence (P62195 whole entry): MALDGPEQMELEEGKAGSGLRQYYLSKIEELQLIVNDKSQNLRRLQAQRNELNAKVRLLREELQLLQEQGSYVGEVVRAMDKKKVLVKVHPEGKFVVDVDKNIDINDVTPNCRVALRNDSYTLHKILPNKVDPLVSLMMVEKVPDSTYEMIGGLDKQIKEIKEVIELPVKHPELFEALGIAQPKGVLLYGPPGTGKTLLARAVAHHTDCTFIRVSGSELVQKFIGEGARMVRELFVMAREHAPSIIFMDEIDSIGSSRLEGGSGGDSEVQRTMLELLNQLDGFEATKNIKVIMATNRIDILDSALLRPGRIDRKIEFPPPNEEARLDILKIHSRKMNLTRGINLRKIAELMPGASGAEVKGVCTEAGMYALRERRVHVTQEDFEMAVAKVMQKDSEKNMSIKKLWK

[8] = target: T8, HeLa cell extract proteins (Homo sapiens, UniProt Q13085)
T8 construct: endogenous in cells; host or cells: HeLa cell extract

[9] = target: T9, HeLa cell extract proteins (Homo sapiens, UniProt Q13347)
T9 construct: endogenous in cells; host or cells: HeLa cell extract
T9 sequence (Q13347 whole entry): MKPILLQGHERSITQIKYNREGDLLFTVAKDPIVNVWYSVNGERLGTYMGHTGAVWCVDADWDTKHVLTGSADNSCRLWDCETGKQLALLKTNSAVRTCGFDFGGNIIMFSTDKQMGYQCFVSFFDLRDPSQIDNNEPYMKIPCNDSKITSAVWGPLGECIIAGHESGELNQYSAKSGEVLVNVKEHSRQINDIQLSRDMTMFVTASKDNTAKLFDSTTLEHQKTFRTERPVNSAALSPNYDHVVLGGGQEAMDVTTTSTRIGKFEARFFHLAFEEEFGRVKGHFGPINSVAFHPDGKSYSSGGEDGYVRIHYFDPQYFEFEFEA

[10] = target: T10, HeLa cell extract proteins (Homo sapiens, UniProt Q8TEM1)
T10 construct: endogenous in cells; host or cells: HeLa cell extract
T10 sequence (Q8TEM1 27-1887): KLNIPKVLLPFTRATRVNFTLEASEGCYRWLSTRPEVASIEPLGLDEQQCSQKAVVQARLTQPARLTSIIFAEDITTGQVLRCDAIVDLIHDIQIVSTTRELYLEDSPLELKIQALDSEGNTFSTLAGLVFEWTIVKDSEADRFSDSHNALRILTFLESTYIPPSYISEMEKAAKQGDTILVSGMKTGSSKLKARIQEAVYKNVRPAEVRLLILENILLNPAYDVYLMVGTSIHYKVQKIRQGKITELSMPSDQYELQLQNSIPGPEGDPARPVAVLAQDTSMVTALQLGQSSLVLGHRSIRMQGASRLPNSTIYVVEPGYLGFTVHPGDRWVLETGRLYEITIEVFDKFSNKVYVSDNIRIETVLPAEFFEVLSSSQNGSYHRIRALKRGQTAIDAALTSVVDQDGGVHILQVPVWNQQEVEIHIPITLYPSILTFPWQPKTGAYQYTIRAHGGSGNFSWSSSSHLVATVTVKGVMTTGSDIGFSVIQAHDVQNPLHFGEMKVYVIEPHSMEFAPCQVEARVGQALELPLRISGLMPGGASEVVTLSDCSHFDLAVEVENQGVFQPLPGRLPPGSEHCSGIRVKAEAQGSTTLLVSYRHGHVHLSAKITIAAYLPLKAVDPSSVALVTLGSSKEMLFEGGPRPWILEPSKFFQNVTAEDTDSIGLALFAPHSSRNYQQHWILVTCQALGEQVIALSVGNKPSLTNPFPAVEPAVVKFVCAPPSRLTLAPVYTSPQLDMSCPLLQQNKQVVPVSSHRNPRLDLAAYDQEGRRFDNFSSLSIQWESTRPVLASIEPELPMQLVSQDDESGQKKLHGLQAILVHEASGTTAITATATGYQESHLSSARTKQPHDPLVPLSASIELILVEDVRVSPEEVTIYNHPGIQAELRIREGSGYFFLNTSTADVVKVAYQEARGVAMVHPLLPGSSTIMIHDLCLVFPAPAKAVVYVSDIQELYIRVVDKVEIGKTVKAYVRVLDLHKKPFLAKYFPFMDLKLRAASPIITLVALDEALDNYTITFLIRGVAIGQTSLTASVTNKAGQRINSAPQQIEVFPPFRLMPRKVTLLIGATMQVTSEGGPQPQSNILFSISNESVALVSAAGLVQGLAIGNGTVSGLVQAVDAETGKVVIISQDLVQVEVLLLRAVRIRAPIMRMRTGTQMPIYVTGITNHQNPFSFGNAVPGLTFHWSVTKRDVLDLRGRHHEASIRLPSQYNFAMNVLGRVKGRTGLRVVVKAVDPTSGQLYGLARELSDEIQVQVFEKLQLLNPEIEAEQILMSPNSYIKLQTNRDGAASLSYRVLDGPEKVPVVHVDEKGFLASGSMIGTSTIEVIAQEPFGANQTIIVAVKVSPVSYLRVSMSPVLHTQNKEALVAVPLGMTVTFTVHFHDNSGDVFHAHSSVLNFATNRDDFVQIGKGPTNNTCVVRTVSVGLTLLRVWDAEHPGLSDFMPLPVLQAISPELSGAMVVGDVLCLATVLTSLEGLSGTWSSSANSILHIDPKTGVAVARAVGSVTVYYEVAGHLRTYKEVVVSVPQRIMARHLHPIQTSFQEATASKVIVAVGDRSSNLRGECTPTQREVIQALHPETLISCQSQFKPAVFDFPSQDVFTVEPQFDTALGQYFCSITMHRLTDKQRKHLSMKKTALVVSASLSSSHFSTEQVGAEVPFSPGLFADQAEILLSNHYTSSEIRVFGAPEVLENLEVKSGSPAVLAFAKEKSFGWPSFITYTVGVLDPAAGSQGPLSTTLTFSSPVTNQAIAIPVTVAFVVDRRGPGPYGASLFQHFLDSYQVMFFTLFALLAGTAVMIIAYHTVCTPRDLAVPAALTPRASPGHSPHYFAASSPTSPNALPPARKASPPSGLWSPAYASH

[11] = target: T11, HeLa cell extract proteins (Homo sapiens, UniProt Q92945)
T11 construct: endogenous in cells; host or cells: HeLa cell extract
T11 sequence (Q92945 1-711): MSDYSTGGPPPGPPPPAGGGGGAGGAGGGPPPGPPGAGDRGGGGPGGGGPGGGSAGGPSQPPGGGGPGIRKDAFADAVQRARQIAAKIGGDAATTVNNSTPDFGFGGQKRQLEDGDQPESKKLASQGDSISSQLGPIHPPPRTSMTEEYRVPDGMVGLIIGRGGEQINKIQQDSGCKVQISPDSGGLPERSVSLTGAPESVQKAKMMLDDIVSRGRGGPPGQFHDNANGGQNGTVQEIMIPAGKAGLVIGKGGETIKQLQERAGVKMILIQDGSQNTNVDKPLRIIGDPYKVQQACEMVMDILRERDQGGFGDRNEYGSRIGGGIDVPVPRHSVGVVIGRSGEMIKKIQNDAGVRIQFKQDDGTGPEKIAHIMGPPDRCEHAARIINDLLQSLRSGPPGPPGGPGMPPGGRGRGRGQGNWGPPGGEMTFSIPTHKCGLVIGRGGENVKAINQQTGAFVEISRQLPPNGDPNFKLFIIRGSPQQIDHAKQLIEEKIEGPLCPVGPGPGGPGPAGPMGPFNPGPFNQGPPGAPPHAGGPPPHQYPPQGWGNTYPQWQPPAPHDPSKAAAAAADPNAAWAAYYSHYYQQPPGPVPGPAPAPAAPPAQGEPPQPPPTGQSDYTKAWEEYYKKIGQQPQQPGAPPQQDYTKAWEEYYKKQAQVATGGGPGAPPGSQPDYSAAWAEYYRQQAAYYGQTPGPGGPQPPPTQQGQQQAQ

[12] = HeLa, protein G3P1_HUMAN (GLYCERALDEHYDE-3-PHOSPHATE DEHYDROGENASE, MUSCLE.)
[13] = HeLa, protein GAPDH (39 KDA PROTEIN.)

| SMILES | fold changes relative to vehicle control ([1]; protein CS, HeLa) | fold changes relative to vehicle control [2, 12] [fold] | fold changes relative to vehicle control [2, 13] [fold] | fold changes relative to vehicle control ([4]; protein PSMB6, HeLa) | fold changes relative to vehicle control ([5]; protein SERPINH1, HeLa) | fold changes relative to vehicle control ([6]; protein RAB7A, HeLa) | fold changes relative to vehicle control ([7]; protein PSMC5, HeLa) | fold changes relative to vehicle control ([8]; protein ACACA, HeLa) | fold changes relative to vehicle control ([9]; protein EIF3I, HeLa) | fold changes relative to vehicle control ([10]; captured protein NUP210, HeLa) | fold changes relative to vehicle control ([11]; captured protein KHSRP, HeLa) | fold changes relative to vehicle control ([1]; HeLa, captured protein CS) | fold changes relative to vehicle control ([2]; protein GAPDH, HeLa) | fold changes relative to vehicle control ([3]; HeLa, protein CALR) | fold changes relative to vehicle control ([4]; HeLa, protein PSMB6) | fold changes relative to vehicle control ([5]; HeLa, protein SERPINH1) | fold changes relative to vehicle control ([7]; HeLa, protein PSMC5) | fold changes relative to vehicle control ([8]; HeLa, captured protein ACACA) | fold changes relative to vehicle control ([9]; HeLa, captured protein EIF3I) | fold changes relative to vehicle control ([10]; HeLa, captured protein NUP210) | other results |
| --- | --- | --- | --- | --- | --- | --- | --- | --- | --- | --- | --- | --- | --- | --- | --- | --- | --- | --- | --- | --- | --- |
| Nc1nc2cccc(-c3ccccc3)c2n1Cc1ccc(Cl)c(Cl)c1 [compound 3] | 1.02 | 0.84 | 0.95 | 1.09 | 0.93 | 1.12 | 1.05 | 1.04 | 1.02 | 0.86 | 0.84 |  |  |  |  |  |  |  |  |  | fold changes relative to vehicle control ([3]; HeLa, protein CALR (CA[…].)): 0.77 fold |
| CCCCCCOc1ccc(Cc2cnc(N)nc2N)cc1 [compound 1] | 1.38 | 1.39 | 1.52 | 1.31 | 1.07 | 1.21 | 1.07 | 1.09 | 0.96 | 0.74 | 0.74 |  |  |  |  |  |  |  |  |  | fold changes relative to vehicle control ([3]; HeLa, protein CALR (CA[…].)): 1.46 fold |
| NCCCNc1ccc(C(=O)NC(CCC(=O)O)C(=O)O)cc1 (centres unmarked) [compound 7] |  |  |  |  |  | 1.05 |  |  |  |  |  | 1.3 | 0.97 | 0.93 | 1.02 | 0.98 | 1.04 | 1.17 | 0.97 | 1.05 | fold changes relative to vehicle control ([11]; HeLa, protein KHSRP): 0.95 |
| CCCCCCOc1cccc(Cc2cnc(N)nc2N)c1 [compound 2] | 1.99 | 2.61 | 2.46 | 1.36 | 1.61 | 1.58 | 1.36 | 1.06 | 0.91 | 0.98 | 0.96 |  |  |  |  |  |  |  |  |  | fold changes relative to vehicle control ([3]; HeLa, protein CALR (CALRETICULIN PRECURSOR.)): 3.14 fold |
| NCCOCCOCC(=O)Nc1nc2ncc(CNc3ccc(C(=O)NC(CCC(=O)O)C(=O)O)cc3)nc2c(=O)[nH]1 (centres unmarked) [compound 6] |  |  |  |  |  | 1.31 |  |  |  |  |  | 1.32 | 1.35 | 1.33 | 1.29 | 1.21 | 1.12 | 1.12 | 0.98 | 1.07 | fold changes relative to vehicle control ([11]; HeLa, protein KHSRP): 0.96 |
| Nc1nc2[nH]cc(CCc3ccc(C(=O)N[C@@H](CCC(=O)O)C(=O)O)cc3)c2c(=O)[nH]1 [PTX, pemetrexed] |  |  |  |  |  |  |  |  |  |  |  |  |  |  |  |  |  |  |  |  | fold changes relative to vehicle control [1]: 1.2; fold changes relative to vehicle control [2]: 1.14; fold changes relative to vehicle control [3]: 1.22; fold changes relative to vehicle control [4]: 1.1; fold changes relative to vehicle control [5]: 1.08; fold changes relative to vehicle control [6]: 1.12; fold changes relative to vehicle control [7]: 1.03; fold changes relative to vehicle control [8]: 1.05; fold changes relative to vehicle control [9]: 1.06; fold changes relative to vehicle control [10]: 0.99; fold changes relative to vehicle control [11]: 0.97 |
| Nc1nc2c(c(=O)[nH]1)N(C=O)C(CNc1ccc(C(=O)N[C@@H](CCC(=O)O)C(=O)O)cc1)CN2 (some centres unmarked) [LEU, leucovorin] |  |  |  |  |  | 0.99 |  |  |  |  |  | 1.05 | 1.01 | 1.15 | 1.01 | 0.99 | 1.02 | 1.02 | 1.06 | 0.97 | fold changes relative to vehicle control ([11]; HeLa, protein KHSRP): 0.9 |
